# According to patent US20240228488A1 (TAKEDA PHARMACEUTICAL COMPANY LIMITED, priority 2021, published 2024):
# Target: human activated kallikrein enzyme (Homo sapiens, UniProt P03952)
# Experiment: Plasma kallikrein inhibition, fluorogenic PFR-AMC substrate, 500 pM activated kallikrein format
# Assay type: biochemical
# Conditions: 500 pM activated kallikrein, 300 uM PFR-AMC, 30 min preincubation, 10 min reaction; read-out: Primary Dose Response Assay: Average EC50
# Summary of the method: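 Fluorescence (ex 380/em 460 nm) is read after 10 min of 300 uM PFR-AMC turnover by 500 pM enzyme at RT. Compounds sit with enzyme for 30 min beforehand. Buffer is Tris (pH 7.5) with EDTA, NaCl, PEG-400 and Triton X-100; EC50 values are banded.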
# human activated kallikrein enzyme, sequence (P03952 391-638 limits assumed): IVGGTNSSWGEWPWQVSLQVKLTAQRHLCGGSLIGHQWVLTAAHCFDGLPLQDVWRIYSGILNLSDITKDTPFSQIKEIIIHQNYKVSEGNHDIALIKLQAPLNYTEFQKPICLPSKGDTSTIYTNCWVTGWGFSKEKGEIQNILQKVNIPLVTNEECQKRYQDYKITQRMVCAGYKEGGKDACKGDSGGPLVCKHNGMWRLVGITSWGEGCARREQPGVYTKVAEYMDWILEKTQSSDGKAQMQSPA
# human activated kallikrein enzyme, sequence (P03952 20-390 partner limits assumed): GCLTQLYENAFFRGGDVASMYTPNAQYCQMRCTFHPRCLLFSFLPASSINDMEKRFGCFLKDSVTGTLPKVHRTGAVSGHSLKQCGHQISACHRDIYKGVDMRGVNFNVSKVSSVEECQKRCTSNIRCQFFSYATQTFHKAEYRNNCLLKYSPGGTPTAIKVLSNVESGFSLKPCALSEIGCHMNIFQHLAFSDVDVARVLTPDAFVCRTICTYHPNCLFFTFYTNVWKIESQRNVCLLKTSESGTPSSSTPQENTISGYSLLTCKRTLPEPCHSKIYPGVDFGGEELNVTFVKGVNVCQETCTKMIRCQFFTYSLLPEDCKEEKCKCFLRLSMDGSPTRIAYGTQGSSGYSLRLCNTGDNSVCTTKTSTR
row,SMILES,EC50
1,"O=C(O)COc1ccc(Cl)cc1[C@H]1C[C@@H]1C(=O)Nc1cc(NCc2cn3cc(C4CC4)ccc3n2)ncn1 (racemic) [Example 315, rac-3-(4-chloro-2-((1S*,2S*)-2-((6-(((6-cyclopropylimidazo[1,2-a]pyridin-2-yl)methyl)amino)pyrimidin-4-yl)carbamoyl)cyclopropyl)phenoxy)acetic acid]",100 to 1000 nM
2,"O=C(Nc1nnc(NCc2cn3cc(C4CC4)ccc3n2)s1)[C@H]1C[C@@H]1c1cccc(Cl)c1 [Example 606, (1S,2S)-2-(3-chlorophenyl)-N-(5-(((6-cyclopropylimidazo[1,2-a]pyridin-2-yl)methyl)amino)-1,3,4-thiadiazol-2-yl)cyclopropane-1-carboxamide]",> 6000 nM
3,"O=C(Nc1cc(N(CCO)Cc2cn3cc(C4CC4)ccc3n2)ncn1)[C@H]1C[C@@H]1c1cc(Cl)ccn1 [Example 328, (1S,2S)-2-(4-chloropyridin-2-yl)-N-(6-(((6-cyclopropylimidazo[1,2-a]pyridin-2-yl)methyl)(2-hydroxyethyl)amino)pyrimidin-4-yl)cyclopropane-1-carboxamide]",10 to 100 nM
4,"O=C(Nc1cc(NCc2cn3cc(C4CC4)ccc3n2)ncn1)[C@H]1C[C@@H]1c1cc(Cl)ncn1 (racemic) [Example I-176, rac-(1S*,2S*)-2-(6-chloropyrimidin-4-yl)-N-(6-(((6-cyclopropylimidazo[1,2-a]pyridin-2-yl)methyl)amino)pyrimidin-4-yl)cyclopropane-1-carboxamide]",100 to 1000 nM
5,"CC(C)c1ccc2nc(CNc3cc(NC(=O)[C@H]4C[C@@H]4c4cccc(Cl)c4)ncn3)cn2c1 [Example I-160, (1S,2S)-2-(3-chlorophenyl)-N-(6-(((6-isopropylimidazo[1,2-a]pyridin-2-yl)methyl)amino)pyrimidin-4-yl)cyclopropane-1-carboxamide]",10 to 100 nM
6,"Cc1nc(NC(=O)[C@H]2C[C@@H]2c2nsc(C)n2)cc(N[C@H](C)c2cn3cc(C4CC4)cc(N4CC(=O)N(C)C4=O)c3n2)n1 (relative stereo) [Example 527, rac-(1S*,2S*)-N-(6-(((R)-1-(6-cyclopropyl-8-(3-methyl-2,4-dioxoimidazolidin-1-yl)imidazo[1,2-a]pyridin-2-yl)ethyl)amino)-2-methylpyrimidin-4-yl)-2-(5-methyl-1,2,4-thiadiazol-3-yl)cyclopropane-1-carboxamide]",1 to 10 nM
7,"CN1C(=O)CN(c2cc(C3CC3)cn3cc(CNc4cc(NC(=O)[C@H]5C[C@@H]5c5nccc(C(F)(F)F)n5)ncn4)nc23)C1=O (racemic) [Example I-165, rac-(1S*,2S*)-N-(6-(((6-cyclopropyl-8-(3-methyl-2,4-dioxoimidazolidin-1-yl)imidazo[1,2-a]pyridin-2-yl)methyl)amino)pyrimidin-4-yl)-2-(4-(trifluoromethyl)pyrimidin-2-yl)cyclopropane-1-carboxamide]",1 to 10 nM
8,"Cc1ccnc([C@H]2C[C@@H]2C(=O)Nc2cc(NC(C)c3cn4cc(C5CC5)cc(N5CC(=O)N(CCOCc6ccccc6)C5=O)c4n3)nc(C3CC3)n2)n1 (stereo partly drawn) [Example 409, (1S,2S)-N-(6-((1-(8-(3-(2-(benzyloxy)ethyl)-2,4-dioxoimidazolidin-1-yl)-6-cyclopropylimidazo[1,2-a]pyridin-2-yl)ethyl)amino)-2-cyclopropylpyrimidin-4-yl)-2-(4-methylpyrimidin-2-yl)cyclopropane-1-carboxamide]",10 to 100 nM

# The next lines start with the values.
row,EC50,SMILES
1,1 to 10 nM,"O=C(Nc1cc(NCc2cn3cc(C4CC4)ccc3n2)ncn1)[C@H]1C[C@@H]1c1cc(Cl)ccc1-n1cnnn1 (racemic) [Example 316, rac-(1S*,2S*)-2-(5-chloro-2-(1H-tetrazol-1-yl)phenyl)-N-(6-(((6-cyclopropylimidazo[1,2-a]pyridin-2-yl)methyl)amino)pyrimidin-4-yl)cyclopropane-1-carboxamide]"
2,< 1 nM,"Cc1ccnc([C@H]2C[C@@H]2C(=O)Nc2cc(OC(C)c3cn4cc(C5CC5)cc(N5CCOC5=O)c4n3)cnn2)n1 (stereo partly drawn) [Example 37, (1S,2S)-N-(5-(1-(6-cyclopropyl-8-(2-oxooxazolidin-3-yl)imidazo[1,2-α]pyridin-2-yl)ethoxy)pyridazin-3-yl)-2-(4-methylpyrimidin-2-yl)cyclopropane-1-carboxamide]"
3,1 to 10 nM,"Nc1cc(Cl)cc([C@H]2C[C@@H]2C(=O)Nc2cc(NCc3cn4cc(C5CC5)ccc4n3)ncn2)c1 (single isomer, unassigned) [Example I-257, rac-(1S*,2S*)-2-(3-amino-5-chlorophenyl)-N-(6-(((6-cyclopropylimidazo[1,2-a]pyridin-2-yl)methyl)amino)pyrimidin-4-yl)cyclopropane-1-carboxamide]"
4,1 to 10 nM,"Cc1ccnc([C@H]2C[C@@H]2C(=O)Nc2cc(OC(C)c3cn4cc(C5CC5)cc(N5CC(=O)NC5=O)c4n3)cnn2)n1 (stereo partly drawn) [Example 39, (1S,2S)—N-(5-(1-(6-cyclopropyl-8-(2,4-dioxoimidazolidin-1-yl)imidazo[1,2-a]pyridin-2-yl)ethoxy)pyridazin-3-yl)-2-(4-methylpyrimidin-2-yl)cyclopropane-1-carboxamide]"
5,1 to 10 nM,"CNC(=O)c1cc(C2CC2)cn2cc(CNc3cc(NC(=O)[C@H]4C[C@@H]4c4cccc(Cl)c4)ncn3)nc12 [Example 303, 2-(((6-((1S,2S)-2-(3-chlorophenyl)cyclopropane-1-carboxamido)pyrimidin-4-yl)amino)methyl)-6-cyclopropyl-N-methylimidazo[1,2-a]pyridine-8-carboxamide]"
6,1 to 10 nM,"O=C(Nc1cc(NCc2cn3cc(C4CC4)cc(N4CCOCC4)c3n2)ncn1)[C@H]1C[C@@H]1c1cccc(Cl)c1 [Example I-154, (1S,2S)-2-(3-chlorophenyl)-N-(6-(((6-cyclopropyl-8-morpholinoimidazo[1,2-a]pyridin-2-yl)methyl)amino)pyrimidin-4-yl)cyclopropane-1-carboxamide]"
7,< 1 nM,"Cc1ccnc([C@H]2C[C@@H]2C(=O)Nc2cc(F)c(Cl)c(NCc3cn4cc(C5CC5)cc(N5CC(=O)N(C)C5=O)c4n3)c2)n1 [Example 658, (1S,2S)—N-(4-chloro-3-(((6-cyclopropyl-8-(3-methyl-2,4-dioxoimidazolidin-1-yl)imidazo[1,2-a]pyridin-2-yl)methyl)amino)-5-fluorophenyl)-2-(4-methylpyrimidin-2-yl)cyclopropane-1-carboxamide]"
8,< 1 nM,"Cc1ccnc([C@H]2C[C@@H]2C(=O)Nc2cc(C#N)cc(NCc3cn4cc(C5CC5)cc(N5CC(=O)N(C)C5=O)c4n3)c2)n1 [Example I-655, (1S,2S)—N-(3-cyano-5-(((6-cyclopropyl-8-(3-methyl-2,4-dioxoimidazolidin-1-yl)imidazo[1,2-a]pyridin-2-yl)methyl)amino)phenyl)-2-(4-methylpyrimidin-2-yl)cyclopropane-1-carboxamide]"
9,< 1 nM,"CS(=O)(=O)c1cc(C2CC2)cn2cc(CNc3cc(NC(=O)[C@H]4C[C@@H]4c4cc(Cl)ccn4)ncn3)nc12 [Example 325, (1S,2S)-2-(4-chloropyridin-2-yl)-N-(6-(((6-cyclopropyl-8-(methylsulfonyl)imidazo[1,2-a]pyridin-2-yl)methyl)amino)pyrimidin-4-yl)cyclopropane-1-carboxamide]"

# Same assay, conditions: comparative compounds, 500 pM activated kallikrein format; read-out: Primary Dose Response Assay: Average EC50
row,EC50,SMILES
1,100 to 1000 nM,Clc1cccc([C@H]2C[C@@H]2CNc2cc(NCc3cn4cc(C5CC5)ccc4n3)ncn2)c1
